Data published in article PMC11847541, “Liver fatty acid binding protein FABP1 transfers substrates to cytochrome P450 4A11 for catalysis” (The Journal of Biological Chemistry, 2025).
Like-named read-outs stand apart in the source and are kept apart here. Values belong to the molecule of their own block, whether it stands above or below them.

Columns and labels:
P450 4A11 [1] = molecular target: T1, P450 4A11 (Homo sapiens, UniProt Q02928); experiment: Equilibrium binding titrations of P450 4A11 with lipids (heme Soret spectral shift); conditions: for P450 heme Soret spectral shift induced: P450 4A11
T1 sequence (Q02928 5-519): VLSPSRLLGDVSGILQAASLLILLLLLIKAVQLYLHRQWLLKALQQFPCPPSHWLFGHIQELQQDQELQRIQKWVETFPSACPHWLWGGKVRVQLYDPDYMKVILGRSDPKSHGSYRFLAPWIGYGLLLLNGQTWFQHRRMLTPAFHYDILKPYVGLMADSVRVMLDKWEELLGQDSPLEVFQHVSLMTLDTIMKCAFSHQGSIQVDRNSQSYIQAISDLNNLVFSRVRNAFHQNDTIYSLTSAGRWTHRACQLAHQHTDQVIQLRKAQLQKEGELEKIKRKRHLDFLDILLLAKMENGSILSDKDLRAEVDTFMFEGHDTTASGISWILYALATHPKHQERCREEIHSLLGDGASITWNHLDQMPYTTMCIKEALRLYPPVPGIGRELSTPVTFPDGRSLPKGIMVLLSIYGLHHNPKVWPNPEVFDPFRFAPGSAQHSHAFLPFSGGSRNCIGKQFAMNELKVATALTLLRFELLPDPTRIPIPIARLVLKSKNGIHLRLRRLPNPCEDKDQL
Method: Affinity of palmitate and 16-OH palmitate for P450 4A11 (1 μM) was assessed by monitoring the blue shift (from ∼420 nm to ∼390 nm) of the P450 heme Soret band as a substrate binds and displaces the sixth axial heme ligand (H2O) to yield pentacoordinated heme (“type I” shift) ([26]).
P450 4A11 (1 μM) was titrated with (A) palmitate and (B) 16-OH palmitate in a 1.0 cm pathlength cell. Difference plots were calculated from absorbance maxima (∼390 nm) and minima (∼420 nm), and the data were fit to a hyperbolic equation. The insets in each panel are the difference spectra between a cuvette that received the lipid substrate and a cuvette that received solvent alone. Each data point corresponds to one independent replicate.
Equilibrium binding titrations with P450 4A11 (1 μM) were performed in buffer (100 mM potassium phosphate [pH 7.4]) as described previously ([44], [56]). Briefly, a baseline was first acquired on an OLIS-Cary 14 spectrophotometer set to scan from 350 to 500 nm in 1 cm glass cuvettes. […] The cuvettes were mixed with a plumper after additions, and spectra were recorded. The spectra were exported into Microsoft Excel software, and the absorbance values at 418 nm were subtracted from those at 390 nm and the values were plotted as a function of lipid concentration.
Titration of P450 4A11 with DAUDA. The P450 concentration was 1 µM and the DAUDA concentration was varied using a geometric series from 1 nM to 10 µM. […] The increase in absorbance in the UV region is due to the strong chromophore in the DAUDA dansyl moiety (Fig. S8).

P450 4A11 [2] = molecular target: T1, P450 4A11; type: biochemical; design: made in house; host or cells: E. coli
Source text: To differentiate between the two possible roles of FABP1 in P450 catalysis (competitive binder versus direct transfer, Fig. 2), two catalytic experiments testing palmitate oxidation were designed: one in which the FABP1 concentration was varied with a fixed concentration of palmitate (Fig. 12A) and another performed vice versa (Fig. 12B).
Dashed lines are the predicted kinetic data from the free ligand model (blue) and the direct transfer model (red) using the experimentally determined rate constants (Table 1, Fig. 2). A reaction performed without the addition of FABP1 (open circles) was also fit to a modeled curve (black dashed line), which utilizes only the rate constants determined for P450 4A11. Error bars reflect standard deviation of two replicate values, that is, range (if not visible, the deviation is too small to be represented). FABP1, fatty acid binding protein.
Potassium phosphate buffer (100 mM, pH 7.4), DTT (1 mM, added as described earlier ([44], [56])), and [1-^14C]-palmitate (5 μM, 20 mCi/mmol [added from a 1 mM stock in C2H5OH]) were added, and the mixture was split between vials. Just prior to the reaction preincubation, FABP1 (0–5 μM) was added (diluted so the same volume of FABP1 stock solutions were added to each sample). The mixtures were preincubated (5 min, 37 °C), and P450 4A11 activity was initiated with an NADPH-regenerating system ([78]), the addition of which brought reactions to their final volume (0.5 ml). Reactions (5 min) were quenched via the addition of CH2Cl2 (5 ml), were mixed with a vortex device, and were placed on ice. After the completion of the time course, the samples were centrifuged (1000g, 5 min, 23 °C) to separate layers, the organic layer (4 ml) was transferred to fresh vials, and the solvent was removed under a stream of N2. […] The column eluate was mixed (1:2, v/v) with FlowLogic U scintillation cocktail (LabLogic), and radioactivity (^14C) was detected using a β-RAM Model 5 radioflow detector (IN/US; LabLogic). Product was quantitated on the basis of its ^14C peak area relative to the summed radioactivity of the substrate and product.
To determine the reaction rate versus palmitate concentration, a similar reconstitution premixture was prepared with the modification that FABP1 (5 μM) was used instead of palmitate, and the concentrations of P450 4A11 and NADPH–P450 reductase were increased to 0.3 μM and 0.6 μM, respectively. […] The residue was dissolved in 50 μl C2H5OH, transferred to autosampler vials, and analyzed on LC–MS as described earlier (see “Quantitation of ligand-bound FABP1”) but set to operate in the negative-ion mode with the gradient mobile phase modified to (all % v/v: 0 min, 65% B; 0.5 min, 65% B; 5 min, 100% B; 7.5 min, 100% B; 7.6 min, 65% B; 9 min, 65% B). […]

Molecule: O=C(O)CCCCCCCCCCCCCCCO [16-OH Palmitate (C16), 16-hydroxypalmitate]
P450 heme Soret spectral shift induced (P450 4A11 [1]): reverse type I shift
Kd (P450 4A11 [1]; read-out: Kd for P450 4A11, P450 4A11 1 μM, 100 mM potassium phosphate pH 7.4): 270 ± 40 nM

maximal observed rate of reaction (P450 4A11 [2]; - cytochrome b5): 12 ± 1 min⁻¹
kcat estimate (P450 4A11 [2]; - cytochrome b5, P450 4A11 0.05 µM): 0.483 ± 0.05 s⁻¹
maximum measurable rate of reaction (k2) (P450 4A11 [2]; palmitate oxidation, without cytochrome b5, did not saturate): 0.2 s⁻¹
Kd (P450 4A11 [1]): 5200 ± 1600 nM
P450 heme Soret spectral shift induced (P450 4A11 [1]; listed as Palmitate): classical type I spectral shift
P450 heme Soret spectral shift induced (P450 4A11 [1]; listed as palmitate): type I
Molecule: CCCCCCCCCCCCCCCC(=O)O [Palmitate (C16), palmitate]

Molecule: FABP1: delipidated recombinant liver fatty acid binding protein with C-terminal hexahistidine tag
reduction of enzyme activity (P450 4A11 [2]): ≤ 50%
